Test results from patent US8716478B2, “Boron-containing small molecules” (Anacor Pharmaceuticals, Inc., priority 2010, dated 2014).
Read-outs that look alike come from different tables or passages of the source.

Key:
[1] = test system: Schistosoma mansoni schistosomula; assay: Schistosoma mansoni schistosomula phenotypic screen; conditions: for Schistosomula (juvenile infective form) worm screen phenotype, 24 h: Second Set, 5 uM; for phenotypes caused by positive control compounds in schistosomula: positive controls
Excerpt: (§1) Puerto Rican isolates of S. mansoni using Biomphalaria glabrata snails and golden hamsters as intermediate and definitive hosts, respectively, were maintained and handled in the University of California-San Francisco Sandler Center for Tropical Medicine. Patent B. glabrata snails (6-8 weeks after exposure to 5-10 infectious miracidia) were induced to shed infective larvae (cercariae) under light stimulus into the surrounding water. Cercariae were washed in rounds of ice-cold water and concentrated through and over sieves of varying pore sizes. They were then mechanically sheared (separation of heads from tails) as described in Colley D G, et al. Exp Parasitol 1974, 35:44-51, in ice-cold Incomplete Medium 169 (as described in Basch P F. J Parasitol 1981, 67:179-185, minus FBS and antibiotics) by passing 15 times through a double headed 22-gauge syringe needle connected to two 10 mL syringes. The resulting cercarial heads (schistosomula) were separated from their tails by swirling in a petri dish. Concentrated schistosomula were added to a sterile 1.5 mL centrifuge tube and allowed to settle over ice. Schistosomula were transferred to a sterile environment and washed 4 times in Incomplete Medium 169 prior to plating.
(§2) Two sets of screening were performed. In the first set, compounds were screened against schistosomula and observations were made at 24 hours, 2 days, 3 days, 4 days, and 6 days. In the second set, compounds were screened against schistosomula with observations at 24 hours, 2 days, 3 days, and 4 days and adult worms at 7 hours, 24 hours, 4 days, and 6 days.
Plates contain 200 schistosomula/well in […] complete Basch medium and were maintained at 37° C. in a 5% CO2 atmosphere. All compounds were tested in duplicate with at least two experimental replicates. Compounds and control compounds were added to the plates using the Biomek FXp using 96-well disposable tips. Final concentration of DMSO in each well was 0.5%.
(§3) A semi-quantitative and controlled nomenclature for phenotypes that can arise as a result of compound insult to both schistosomula and adults was utilized (Abdulla M H, et al., PLoS Negl Trop Dis 2009, 3:e478). Phenotypes were recorded by visual inspection and on a flexible time basis but at least at 24 h and 4 day time-points in the case of large scale screening. […] To help eliminate bias, two screen analysts scored phenotypes ‘blind’ both to knowledge of the contents of each screening plate and the phenotypes scored by his/her colleague. Upon completing their individual assessments, each analyst's ‘hit sheet’ was then compared to derive a ‘consensus hit sheet’. Discrepancies in analysts' hit sheets were re-evaluated under the microscope to eventually make a consensus hit call.
(§4) Hyper-coiled and coiled represent a verbal description of the visual phenotype as compared to the DMSO control. The + and ++ and +++ means more of the phenotype which preceded it. The − means less of the phenotype which preceded it. Results

[2] = test system: Schistosoma mansoni adult worms; assay: Schistosoma mansoni adult worm phenotypic screen; conditions: for phenotypes caused by positive control compounds in adult worms: positive controls
Excerpt: as §1, §2
Given the delicacy and size (0.5-1.5 cm in length) of this stage all operations were performed manually by the Sandler Center. 24-well plates were set up with compound (final DMSO concentration=0.5%) containing approximately 5 pairs of worms (S. mansoni has separate sexes) in 2 mL complete Basch medium per well. Plates were maintained at 37° C. in a 5% CO2 atmosphere. All compounds were tested in duplicate with at least two experimental replicates.
as §3, §4

human PDE4 enzyme = assay: Phosphodiesterase 4 (PDE4) inhibition, semi-purified enzyme from human U937 cells; assay type: biochemical
[3] = test system: TNF-α in peripheral blood mononuclear cells (PBMCs); assay: TNF-α inhibition in LPS-stimulated peripheral blood mononuclear cells; assay type: cell-based; conditions: PBMC
Protocol: Peripheral blood mononuclear cells (PBMCs) pooled from 10-20 donors were obtained from a local blood bank, ficoll gradient purified, and stored frozen in liquid nitrogen. Cells were thawed and seeded into 96-well plates at 5×10^5 cells/well in RPMI 1640 with 10% heat-inactivated fetal calf serum (MediaTech, Inc, Hearndon, Va., USA), Test articles were evaluated at the indicated concentrations in 150 μL media containing <2% DMSO, final, with stimulant and PBMCs. Cells were stimulated with lipopolysaccharide (LPS, phenol-extract from E. coli, Sigma-Aldrich, St. Louis, Mo.) at 1 μg/mL. Stimulation was with LPS for 24 h to measure TNF-α. Cytokines in supernatants were analyzed with a FACSArray flow cytometer (BD Biosciences, San Jose, Calif., USA) using the BD Cytometric Bead Array (CBA) Flex Set (BD Biosciences). IC50 values were calculated using the four parameter logistic equation.

[4] = Pharmacokinetics and oral bioavailability after IV and PO dosing; assay type: in vivo, female CD-1 mice; conditions: plasma; for bioavailability / AUC: female, CD-1, mouse; for bioavailability: po; for AUC: 10 mg/kg oral suspension dose; for clearance: mouse, 5 mg/kg, female CD-1 mice, intravenous
Protocol: The objective of this study was to evaluate the pharmacokinetics and oral bioavailability of PDE4 inhibitors following intravenous (IV) administration and oral (PO) doses in female CD-1 mice.
After dosing, blood samples were collected through 24 h, twice from each animal at specific times (3 mice/time point), into microcentrifuge tubes containing K2EDTA (anticoagulant), stored on wet ice and processed for plasma. The plasma samples were analyzed for concentrations of parent compound by LC/MS/MS using an internal standard/peak area method. Pharmacokinetic analysis of the mean plasma concentration-time profiles following IV and PO administration was performed.
[…] Dosing solutions for intravenous administration were prepared in 55% PEG300/25% PG/20% water. Oral dosing used a suspension prepared in 1% CMC in water with 0.1% Tween 80.
After dosing, blood samples were collected through 24 h, twice from each animal via retro-orbital bleed (˜0.1 mL, 1st time point) or cardiac puncture (˜0.6 mL, 2nd time point) at specific times (3 mice/time point), into microcentrifuge tubes containing K2EDTA (anticoagulant) and stored on wet ice prior to processing.
Plasma was prepared by centrifugation of blood samples for 6 min at approximately 2000×g or 6000 rpm at 4° C. All processed plasma samples (˜50 μL and 300 μL) were transferred to analysis tubes, placed on dry ice immediately and later stored at −80° C. until analysis for concentrations of experimental compound by LC/MS/MS.
Mouse IV clearance, Mouse Oral AUC and Oral Bioavailability are provided below. 6-(1-Hydroxy-1,3-dihydrobenzo[c][1,2]oxaborol-5-yloxy)-2-(2-isopropoxyethoxy)nicotinonitrile (D140) and 6-(1-hydroxy-1,3-dihydrobenzo[c][1,2]oxaborol-5-yloxy)-2-(4-oxopentyloxy)nicotinonitrile (D141) are disclosed in U.S. patent application Ser. No. 12/399,015, filed Mar. 5, 2009.

TNF-α = assay: In vivo TNF-α release in LPS treated mice; set-up: species or system Swiss Webster mice
Protocol: In vivo TNF-α release was measured in Swiss Webster mice, 10/group. Animals were dosed via oral gavage with drug 1% CMC suspension. Thirty minutes later LPS, 1.5 mg/kg was administered by intraperitoneal injection. Ninety minutes later animals were sacrificed, blood was collected by exsangination and serum prepared for analysis. TNF-α concentration was assessed by ELISA, non-drug treated animals had TNF-α levels 1000-3000 pg/mL. 6-(1-Hydroxy-1,3-dihydrobenzo[c][1,2]oxaborol-5-yloxy)-2-(2-isopropoxyethoxy)nicotinonitrile (D140) and 6-(1-hydroxy-1,3-dihydrobenzo[c][1,2]oxaborol-5-yloxy)-2-(4-oxopentyloxy)nicotinonitrile (D141) are disclosed in U.S. patent application Ser. No. 12/399,015, filed Mar. 5, 2009.

N#Cc1ccc(Oc2ccc3c(c2)COB3O)nc1OC1CCCC1 [2-Cyclopentyloxy-6-(1-hydroxy-1,3-dihydro-benzo[c][1,2]oxaborol-5-yloxy)-nicotinonitrile]
Schistosomula (juvenile infective form) worm screen phenotype, 24 h ([1]; 24 h): R, O+
Adult worm screen phenotype, 7 h ([2]; 5 uM): O+
Adult worm screen phenotype, 24 h ([2]; 5 uM, 24 h): O−

CC(C)OCCOc1nc(Oc2ccc3c(c2)COB3O)ccc1C#N [Compound D140, 6-(1-Hydroxy-1,3-dihydrobenzo[c][1,2]oxaborol-5-yloxy)-2-(2-isopropoxyethoxy)nicotinonitrile]
IC50 (human PDE4 enzyme; under similar conditions, read-out: PDE4 IC50 value): 9 nM
Adult worm screen phenotype, 7 h ([2]; 5 uM): O++
IC50 ([3]; under similar conditions, read-out: TNF-α IC50 value): 3.6 nM
bioavailability [4]: 24%
AUC [4]: 810 ng·h/mL
clearance [4]: 56.7 mL/min/kg
% Inhibition of TNFa Blood Levels in LPS Treated Mice (TNF-α; Oral Dose 0.3 mg/kg): 26.4%
% Inhibition of TNFa Blood Levels in LPS Treated Mice (TNF-α; Oral Dose 0.5 mg/kg): 30%
% Inhibition of TNFa Blood Levels in LPS Treated Mice (TNF-α; Oral Dose 1 mg/kg): 50.2%
% Inhibition of TNFa Blood Levels in LPS Treated Mice (TNF-α; Oral Dose 3 mg/kg): 59.35%
% Inhibition of TNFa Blood Levels in LPS Treated Mice (TNF-α; Oral Dose 5 mg/kg): 72%
% Inhibition of TNFa Blood Levels in LPS Treated Mice (TNF-α; Oral Dose 10 mg/kg): 74%
% Inhibition of TNFa Blood Levels in LPS Treated Mice (TNF-α; Oral Dose 30 mg/kg): 83.5%

COc1nc(Oc2cc3c(cc2F)B(O)OC3)ccc1C#N [6-(6-Fluoro-1-hydroxy-1,3-dihydrobenzo[c][1,2]oxaborol-5-yloxy)-2-methoxynicotinonitrile]
schistosomula phenotype, 24 h ([1]; First Set, 24 h): O+
Adult worm screen phenotype, 7 h ([2]; 5 uM): O++

N#Cc1ccc(Oc2ccc3c(c2)COB3O)nc1 [6-(1-hydroxy-1,3-dihydrobenzo[c][1,2]oxaborol-5-yloxy)nicotinonitrile]
Schistosomula (juvenile infective form) worm screen phenotype, 24 h ([1]; 24 h): R−, O,
Adult worm screen phenotype, 7 h ([2]; 5 uM): O−

O=C(Nc1ccc(Oc2ccc(Cl)cc2)c(Cl)c1)c1cc(I)cc(I)c1O [rafoxanide, reference compound]
phenotypes caused by positive control compounds in schistosomula [1]: dose-dependent, rapid and severe phenotypes
phenotypes caused by positive control compounds in adult worms [2]: dose-dependent, rapid and severe phenotypes

CC(C)OCCOc1nc(Oc2ccc3c(c2)COB3O)c(Cl)cc1C#N [Compound D230, 5-chloro-6-(1-hydroxy-1,3-dihydrobenzo[c][1,2]oxaborol-5-yloxy)-2-(2-isopropoxyethoxy)nicotinonitrile]
IC50 (human PDE4 enzyme; 1 μM cAMP, 20 minutes at 25° C., read-out: PDE4 IC50): 5.2 nM
IC50 ([3]; PBMCs, LPS 1 μg/mL for 24 h, read-out: Proinflammatory TNF-α IC50): 2.5 nM
bioavailability [4]: 60%
AUC [4]: 3000 ng·h/mL
clearance [4]: 36.7 mL/min/kg
% Inhibition of TNFa Blood Levels in LPS Treated Mice (TNF-α; Oral Dose 0.1 mg/kg): 39%
% Inhibition of TNFa Blood Levels in LPS Treated Mice (TNF-α; Oral Dose 0.3 mg/kg): 59%
% Inhibition of TNFa Blood Levels in LPS Treated Mice (TNF-α; Oral Dose 0.5 mg/kg): 55%
% Inhibition of TNFa Blood Levels in LPS Treated Mice (TNF-α; Oral Dose 1 mg/kg): 76%
% Inhibition of TNFa Blood Levels in LPS Treated Mice (TNF-α; Oral Dose 3 mg/kg): 80%
% Inhibition of TNFa Blood Levels in LPS Treated Mice (TNF-α; Oral Dose 5 mg/kg): 77%
% Inhibition of TNFa Blood Levels in LPS Treated Mice (TNF-α; Oral Dose 10 mg/kg): 77%

O=C(C1CCCCC1)N1CC(=O)N2CCc3ccccc3C2C1 (centres unmarked) [PZQ, reference compound]
phenotypes caused by positive control compounds in schistosomula [1]: dose-dependent, rapid and severe phenotypes
phenotypes caused by positive control compounds in adult worms [2]: dose-dependent, rapid and severe phenotypes

O=C(Nc1ccc([N+](=O)[O-])cc1Cl)c1cc(Cl)ccc1O [niclosamide, reference compound]
phenotypes caused by positive control compounds in schistosomula [1]: dose-dependent, rapid and severe phenotypes
phenotypes caused by positive control compounds in adult worms [2]: dose-dependent, rapid and severe phenotypes
